In US8552037B2, “Tricyclic compound and pharmaceutical use thereof” (Takeda Pharmaceutical Company Limited, priority 2006, dated 2013):

How the values were obtained:
[1] = target: human melatonin 2 receptors (human MT2 receptors) (Homo sapiens (Human), UniProt P49286); test: Melatonin receptor binding assay, 2-[125I] Iodomelatonin, CHO-hMT2 cell membrane fraction; settings: binding inhibition of 2-[125I] Iodomelatonin, CHO-hMT2 membranes, 25° C., 2.5 hr
Protocol: (§1) Melatonin Receptor Binding Assay
(2) Preparation of CHO-hMT2 Cells Expressing Human Melatonin 2 Receptors
CHO-K1 cells (ATCC, #CCL-61) were plated at the concentration of 1.5×10^5 cells/cm^2 in a 6 well plate (ASAHI TECHNO GLASS), and cultured under the conditions of 37° C., 5% CO2 for 24 hr.
(§2) (3) Preparation of Cell Membrane Fraction of CHO Cell (CHO-hMelR7 and CHO-hMT2) Stably Expressing Human MT1 and MT2 Receptors
(§3) CHO-hMelR7 and CHO-hMT2 cells were plated using Cellfactory (Nunc, #170009) under the conditions of 1×10^8 cells/2000 mL/flask. The cells were grown to confluent, and recovered by the following method. As the medium for CHO-hMelR7 and CHO-hMT2, MEM α containing 10% FBS and penicillin/streptomycin was used. […] of geneticin was added to the medium for CHO-hMT2.
(§4) The medium was discarded, cells were washed twice with 200 mL of EDTA/PBS(−), 200 mL of EDTA/PBS(−) was further added, and the cells were stood still at room temperature for 20 min until they were released. […] The mixture was further centrifuged at 1,500 rpm for 10 min at 4° C., and the obtained pellets were suspended in 20 mL of ice-cooled homogenizing buffer [10 mM NaHCO3, 5 mM EDTA, Protease inhibitor Complete (Roche), pH 7.4]. The cell suspension was homogenized 3 times using a polytron homogenizer at 20,000 rpm for 30 sec. The obtained homogenate was centrifuged (2,000 rpm, 10 min, 4° C.) using a low speed cooling centrifuge. The supernatant was recovered in an ultracentrifugation tube and ultracentrifuged (40,000 rpm, 60 min, 4° C.) using an ultracentrifuge (Beckman, L-90K). To the obtained pellets was added a suspending buffer [50 mM Tris-HCl, 1 mM EDTA, Protease inhibitor Complete (Roche), pH 7.4], and the pellets were suspended by pipetting. The protein concentration of this suspension was measured, diluted to 2 mg/mL to give cell membrane fractions of CHO-hMelR7 and CHO-hMT2 cells. […] Protein was quantified using BCA protein assay kit (Pierce) with BSA as the standard.
(§5) (4) Preparation of Membrane Fraction Suspension
(§6) Immediately before use, the membrane fractions of CHO-hMelR7 and CHO-hMT2 cells of the above-mentioned (3) were diluted 20-fold with assay buffer (50 mM Tris-HCl, pH 7.7).
(§7) Iodomelatonin (#NEX236, PerkinElmer) was diluted with the assay buffer to 400 pM for MT1 and 1 nM for MT2.
(§8) Then, a test compound (compound solution diluted with DMSO to 200-fold of the final measurement concentration) was added by 2 μL. 2 μL of DMSO was added to each well of the total binding control section, and 100 μM cold Melatonin solution (Sigma, diluted with DMSO to 100 μM) was added to each well of the nonspecific binding control section by 2 μL. Then, the membrane fraction suspension (100 μL) was added. […] Iodomelatonin solution of the above-mentioned (5) was added to each well mentioned above by 20 μL, and a binding reaction was carried out at 25° C. for 2.5 hr in a micromixer (TAITEC, Bioshaker M.BR-024).
(§9) Using a cell harvester (PerkinElmer), the binding reaction mixture in each well of the 96-well plate was transferred to a treated (immersed in 50 mM Tris, pH 7.7 in advance) filter plate (UniFilter GF/C, PerkinElmer) and filtered. After filtration, the plate was washed 4 times with the assay buffer, and dried in a dryer (42° C.) for 2 hr or more. 25 μL of a liquid scintillator (MicroScint O, PerkinElmer) was added to each well of the filter plate after drying, and the luminescence of scintillator was measured by TopCount (PerkinElmer) for 1 min.
(§10) Specific binding is a value obtained by subtracting nonspecific binding from the total binding. The binding inhibitory activity of the test compound is shown by the ratio of the value obtained by subtracting the measurement value when the test compound was added from the total binding, to the specific binding.

[2] = target: human melatonin 1 receptors (human MT1 receptors) (Homo sapiens (Human), UniProt P48039); test: Melatonin receptor binding assay, 2-[125I] Iodomelatonin, CHO-hMelR7 cell membrane fraction; settings: binding inhibition of 2-[125I] Iodomelatonin, CHO-hMelR7 membranes, 25° C., 2.5 hr
human melatonin 1 receptors (human MT1 receptors), sequence (P48039 whole entry): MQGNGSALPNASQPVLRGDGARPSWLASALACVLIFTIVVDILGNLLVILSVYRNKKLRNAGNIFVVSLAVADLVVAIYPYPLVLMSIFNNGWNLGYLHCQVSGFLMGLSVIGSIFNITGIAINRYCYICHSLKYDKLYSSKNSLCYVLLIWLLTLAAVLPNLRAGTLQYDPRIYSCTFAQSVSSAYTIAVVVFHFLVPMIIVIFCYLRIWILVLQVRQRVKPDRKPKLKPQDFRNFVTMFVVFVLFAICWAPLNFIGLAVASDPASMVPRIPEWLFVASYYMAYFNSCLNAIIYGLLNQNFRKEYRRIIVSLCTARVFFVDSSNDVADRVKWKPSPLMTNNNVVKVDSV
Protocol: as §1
(1) Preparation of CHO-hMelR7 Cells Expressing Human Melatonin 1 Receptors
as §2, §3, §4, §5, §6, §7, §8, §9, §10

[3] = In vitro metabolic stability test; type: in vitro ADME; settings: human liver microsome, NADPH production system, 37° C., 20 min incubation, HPLC-UV
Protocol: In Vitro Metabolic Stability Test
(1) Preparation of Analysis Sample
The necessary amounts of the analysis samples were prepared at the following composition ratio. Test compound mixture: 0.1 mol/L phosphate buffer (pH 7.4) (41 μL), control microsome (manufactured by Gentest, human lymphoblastoid cell-derived control microsome, 10 mg protein/mL) (8 μL), and test compound 0.1 mM methanol solution (1 μL). Microsome mixed solution: 0.1 mol/L phosphate buffer (pH 7.4) (9 μL), human liver microsome (manufactured by XENOTECH, H0610, 20 mg protein/mL) (1 μL), and purified water (20 μL). NADPH production system: 50 mmol/L β-NADP+ (200 μL), 500 mmol/L Glucose-6-phosphate (200 μL), 150 unit/mL Glucose-6-phosphate dehydrogenase (200 μL), 0.1 mol/L MgCl2 (1 mL), and purified water (2.4 mL).
Microsome mixed solution (30 μL) and NADPH production system (20 μL) were sequentially dispensed to each well of a 96 well plate (type 3371, Corning), and a test compound mixture (50 μL) was added. Acetonitrile (100 μL) was added before start of incubation at 37° C. or 20 min later to give samples before and after incubation. These samples were centrifuged (3,000 rpm, 10 min), and the supernatant was dispensed to a 96 well plate by about 100 μL and 2-fold diluted with purified water (100 μL). 90 μL thereof was analyzed by HPLC.
HPLC analysis Conditions • Instrument: Shimadzu LC10vp • Column: CAPCELL PAK C18 MGII (4.6×75 mm, 3 μm) • Mobile phase A: 10 mmol/L ammonium acetate:acetonitrile=9:1 • Mobile phase B: 10 mmol/L ammonium acetate:acetonitrile=1:9 • Flow rate: 1 mL/min • Column temperature: 40° C. • Detection: UV (250 nm) • Gradient: […]
(3) Data Analysis and Results
Elimination percentage was determined from the difference in the unchanged compound peak areas before and after the start of the reaction, normalized based on the reaction time and microsome concentration, and the elimination rate (%/min/mg) was calculated.

human melatonin 2 receptors (human MT2 receptors), sequence (P49286 whole entry): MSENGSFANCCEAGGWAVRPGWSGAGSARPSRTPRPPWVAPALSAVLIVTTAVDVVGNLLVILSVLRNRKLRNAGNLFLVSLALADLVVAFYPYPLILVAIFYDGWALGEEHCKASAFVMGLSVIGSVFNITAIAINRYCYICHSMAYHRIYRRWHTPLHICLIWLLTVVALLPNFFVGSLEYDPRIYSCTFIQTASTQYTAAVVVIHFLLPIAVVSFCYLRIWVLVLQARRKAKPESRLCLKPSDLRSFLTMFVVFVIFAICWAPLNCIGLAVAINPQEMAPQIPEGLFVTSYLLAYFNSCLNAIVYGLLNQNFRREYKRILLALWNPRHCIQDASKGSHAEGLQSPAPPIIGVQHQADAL

| Compound | IC50 [1] | IC50 [2] | melting point | elimination rate (%/min/mg) [3] |
| --- | --- | --- | --- | --- |
| CCC(=O)NCC[C@H]1CCc2ccc3nc(C)oc3c21 [Example 16, (R)-N-[2-(2-Methyl-7,8-dihydro-6H-indeno[5,4-d][1,3]oxazol-8-yl)ethyl]propionamide] | 6.2 nM | 11 nM | – | – |
| CC(=O)NCC[C@H]1CCc2ccc3nc(C)sc3c21 [Example 21, (R)-N-[2-(2-Methyl-7,8-dihydro-6H-indeno[5,4-d][1,3]thiazol-8-yl)ethyl]acetamide] | 8.5 nM | 19 nM | – | – |
| Cc1nc2ccc3c(c2o1)C(CCNC(=O)C1CC1)CC3 (stereo not drawn) [Example 43, N-[2-(2-Methyl-7,8-dihydro-6H-indeno[5,4-d][1,3]oxazol-8-yl)ethyl]cyclopropanecarboxamide] | 0.77 nM | 0.25 nM | 134 to 137 °C | – |
| CC(=O)NCCC1CCc2ccc3nc(C)oc3c21 (stereo not drawn) [Example 11, N-[2-(2-Methyl-7,8-dihydro-6H-indeno[5,4-d][1,3]oxazol-8-yl)ethyl]acetamide] | 0.31 nM | 0.15 nM | – | – |
| CC(=O)NCC=C1CCc2ccc3nc(CCCCc4ccccc4)oc3c21 [Example 6, N-{2-[2-(4-Phenylbutyl)-6,7-dihydro-8H-indeno[5,4-d][1,3]oxazol-8-ylidene]ethyl}acetamide] | 0.43 nM | 0.079 nM | 113 to 115 °C | – |
| CC(=O)NCC[C@H]1CCc2ccc3nc(C)oc3c21 [Example 13, (R)-N-[2-(2-Methyl-7,8-dihydro-6H-indeno[5,4-d][1,3]oxazol-8-yl)ethyl]acetamide] | 9.6 nM | 15 nM | – | – |
| CC(=O)NCCC1CCc2ccc3nc(C4CC4)oc3c21 (stereo not drawn) [Example 29, N-[2-(2-Cyclopropyl-7,8-dihydro-6H-indeno[5,4-d][1,3]oxazol-8-yl)ethyl]acetamide] | 0.75 nM | 0.66 nM | 92 to 95 °C | – |
| CCc1nc2ccc3c(c2o1)C(CCNC(C)=O)CC3 (stereo not drawn) [Example 22, N-[2-(2-Ethyl-7,8-dihydro-6H-indeno[5,4-d][1,3]oxazol-8-yl)ethyl]acetamide] | 0.41 nM | 0.36 nM | 76 to 78 °C | – |
| CC(=O)NCC=C1CCc2ccc3nc(C)oc3c21 [Example 3, N-[2-(2-Methyl-6,7-dihydro-8H-indeno[5,4-d][1,3]oxazol-8-ylidene)ethyl]acetamide] | 0.37 nM | 0.33 nM | 188 to 190 °C | – |
| CC(=O)NCCC1CCc2ccc3ncoc3c21 (stereo not drawn) [Example 9, N-[2-(7,8-Dihydro-6H-indeno[5,4-d][1,3]oxazol-8-yl)ethyl]acetamide] | 0.31 nM | 0.88 nM | – | – |
| CC(=O)NCCC1CCc2ccc3nc(C)sc3c21 (stereo not drawn) [Example 19, N-[2-(2-Methyl-7,8-dihydro-6H-indeno[5,4-d][1,3]thiazol-8-yl)ethyl]acetamide] | 0.28 nM | 0.15 nM | – | 2.4 %/min/mg |

Second part, the compound after the results:

| IC50 [1] | IC50 [2] | melting point | elimination rate (%/min/mg) [3] | Compound |
| --- | --- | --- | --- | --- |
| 0.22 nM | 0.19 nM | 184 to 186 °C | – | CC(=O)NCC=C1CCc2ccc3nc(C)sc3c21 [Example 8, N-[2-(2-Methyl-6,7-dihydro-8H-indeno[5,4-d][1,3]thiazol-8-ylidene)ethyl]acetamide] |
| 0.28 nM | 0.13 nM | – | – | CCC(=O)NCCC1CCc2ccc3nc(C)oc3c21 (stereo not drawn) [Example 14, N-[2-(2-Methyl-7,8-dihydro-6H-indeno[5,4-d][1,3]oxazol-8-yl)ethyl]propionamide] |
| 0.091 nM | 0.022 nM | – | – | CC(=O)NCCC1CCc2ccc3nc(CCCCc4ccccc4)oc3c21 (stereo not drawn) [Example 17, N-{2-[2-(4-Phenylbutyl)-7,8-dihydro-6H-indeno[5,4-d][1,3]oxazol-8-yl]ethyl}acetamide] |
| 0.14 nM | 0.095 nM | 104 to 106 °C | – | Cc1nc2ccc3c(c2o1)C(CCNC(=O)C(F)(F)F)CC3 (stereo not drawn) [Example 45, 2,2,2-Trifluoro-N-[2-(2-methyl-7,8-dihydro-6H-indeno[5,4-d][1,3]oxazol-8-yl)ethyl]acetamide] |
| 0.049 nM | 0.03 nM | – | 2.6 %/min/mg | CCC(=O)NCC[C@@H]1CCc2ccc3nc(C)oc3c21 [Example 15, (S)-N-[2-(2-Methyl-7,8-dihydro-6H-indeno[5,4-d][1,3]oxazol-8-yl)ethyl]propionamide] |
| 0.13 nM | 0.057 nM | – | −0.3 %/min/mg | CC(=O)NCC[C@@H]1CCc2ccc3nc(C)oc3c21 [Example 12, (S)-N-[2-(2-Methyl-7,8-dihydro-6H-indeno[5,4-d][1,3]oxazol-8-yl)ethyl]acetamide] |
| 0.12 nM | 0.038 nM | – | 2.7 %/min/mg | CC(=O)NCC[C@@H]1CCc2ccc3nc(C)sc3c21 [Example 20, (S)-N-[2-(2-Methyl-7,8-dihydro-6H-indeno[5,4-d][1,3]thiazol-8-yl)ethyl]acetamide] |
| 0.28 nM | 0.54 nM | 126 to 128 °C | 2.6 %/min/mg | COc1nc2ccc3c(c2o1)C(CCNC(C)=O)CC3 (stereo not drawn) [Example 38, N-[2-(2-Methoxy-7,8-dihydro-6H-indeno[5,4-d][1,3]oxazol-8-yl)ethyl]acetamide] |
| 0.24 nM | 0.068 nM | 154 to 156 °C | – | CC(=O)NCCC1=CCc2ccc3nc(C)oc3c21 [Example 4, N-[2-(2-Methyl-6H-indeno[5,4-d][1,3]oxazol-8-yl)ethyl]acetamide] |
| 0.22 nM | 0.25 nM | 214 to 216 °C | – | CCC(=O)NCC=C1CCc2ccc3nc(C)oc3c21 [Example 5, N-[2-(2-Methyl-6,7-dihydro-8H-indeno[5,4-d][1,3]oxazol-8-ylidene)ethyl]propionamide] |
